Data as given in patent US20030035851A1, “Anti-cancer agents and method of use thereof” (priority 2001, published 2003).
≈ marks a conversion by molar mass, not a printed value.

Legend:
[1] = test system: DU-145 cell cycle; experiment: Cell cycle distribution by DNA flow cytometry, DU-145; assay type: cell-based; conditions: for cell cycle arrest phase / increase in the number of cells arrested in the S phase compared to the control / cells arrested in the G2M phase: DU-145; for increase in the number of cells arrested in the S phase compared to the control: FIG. 6
[2] = test system: LNCaP and DU-145; experiment: Cell growth inhibition of LNCaP and DU-145 by DES (FIG. 14); assay type: cell-based; conditions: previous study
[3] = test system: LNCaP cell cycle; experiment: Cell cycle distribution by DNA flow cytometry, LNCaP; assay type: cell-based, Human; parameters: cells arrested in the G1 phase: dose or concentration left out as unconfirmed
Description: The cell cycle is the program for cell growth and cell proliferation (cell division). There are four phases of the cell cycle: G1, S, G2, and M. The G1 phase is characterized by gene expression and protein synthesis, and is regulated primarily by extracellular stimuli. During the S phase, the cell replicates its DNA. During the G2 phase, the cell undergoes growth and protein synthesis in preparation for cell division. The M phase is characterized by cytokinesis of the cell into two daughter cells.
The effect of oridonin and lupulone on LNCaP cells was determined by the following method. 2×10^6-4×10^6 cultured cells were exposed to varying concentrations (e.g., 1.5 microgram/milliliter (ug/ml)-3 ug/ml) of oridonin or lupulone for 24-48 hours in 12.5 cm^2 area flasks before being harvested. The cells were washed with phosphate buffered saline (PBS) and fixed in ice-cold 70% ethanol.
The distribution of cells in various stages of the cell cycle were determined by first staining the cells with the DNA specific fluorochrome, and then by measuring cellular DNA content with an ELITE ESP flow cytometer (Coulter Inc., Fl.) using UV laser illumination. The Multicycle program (Phoenix Flow Systems) was used to deconvolute the DNA frequency histograms to estimate the frequency of cells in different phases of the cell cycle, and those in apoptosis.

[4] = test system: MCF-7 cell cycle; experiment: Cell cycle distribution by DNA flow cytometry, MCF-7; assay type: cell-based; conditions: for cells arrested in the G1 phase: FIG. 7
[5] = test system: LNCaP cells; experiment: MTT cell proliferation assay, LNCaP; assay type: cell-based, Human; conditions: for ED50 values from MTT Assay, LNCaP: concentration giving 50% inhibition of cancer cell growth, 72 hours, linear interpolation of FIGS. 1-3
Description: (§1) The cells were routinely seeded at 1×10^5 cells/ml in T-75 flasks, allowed to attach overnight, and then treated with the oridonin or the lupulone. At different times, the cells were harvested by trypsinization.
(§2) The inhibitory effect on a cell's ability to divide was determined by an MTT (3-(4,5-dimethylthiazol-2-yl)-2,5-diphenyl tetrazolium bromide) assay. The assay reagents were purchased from Boehringer Mannheim (Roche Diagnosis Corp, Indianapolis, Ind.). […] The MTT assay provides a method whereby cell proliferation can be determined by […]. The protocol for the cell viability assay was provided by Boehringer Mannheim and modified as described below.
(§3) The cells were then incubated at […] and allowed to attach to the plates. After 24 hours, 20 microliter aliquots having varying concentrations of oridonin or lupulone were added to the cell culture. Each aliquot was plated into 3 wells to obtain mean values. […] The plates were incubated at 37° C. in a CO2 incubator for 72 hours. After 72 hours, the culture medium was carefully removed without disturbing the cells and replaced by 100 microliters of fresh cell medium. 10 microliters of MTT was added to each well and the plates were incubated in the CO2 incubator at 37° C. for 4 hours. Afterwards, 100 microliters of sodium dodecylsulfate (SDS) solubilizing reagent (from Boehringer Mannheim) was added to each well. The plates were placed in the CO2 incubator at 37° C. for about 10-14 hours. Afterwards, the cell concentration of each plate was determined by an ELISA Reader (EL800, Bio-Tek Instruments, Inc.) at a wavelength of […]. The percent cell viability was calculated according to the equation below: [formula]
(§4) where V is the percent cell viability, Acontrol is the absorption of the control cells, and Atreated is the absorption of the treated cells.

[6] = test system: MCF-7 cells; experiment: MTT cell proliferation assay, MCF-7; assay type: cell-based; conditions: for ED50 values from MTT Assay, MCF-7: concentration giving 50% inhibition of cancer cell growth, 72 hours, linear interpolation of FIGS. 1-3
Description: as §1, §2, §3, §4

[7] = test system: DU-145 cells; experiment: MTT cell proliferation assay, DU-145; assay type: cell-based; conditions: for ED50 values from MTT Assay, DU-145: concentration giving 50% inhibition of cancer cell growth, 72 hours, linear interpolation of FIGS. 1-3
Description: as §1, §2, §3, §4

[8] = test system: LNCaP cells; experiment: TdT DNA strand break apoptosis assay, LNCaP; assay type: cell-based, Human; conditions: oridonin 13.7uM, 48 hours, FIG. 13
Description: To determine apoptosis in cells, a quantitative assay for the detection of DNA breakage, using the terminal deoxyribonucleotide transferase (TdT) color reaction assay (TiterTACS, Trevigen, Gaithersburg, Md.), was employed. Cells were fixed in 1% ice-cold formaldehyde for 15 minutes and postfixed in 70% ethanol overnight at −20° C. DNA strand breaks were directly labeled with fluorescent (2′-deoxyuridine 5′-triphosphate) dUTP in the reaction catalyzed by exogenous terminal deoxynucleotidyltransferase using the APO-Direct kit (Phoenix Flow System, San Diego, Calif.) according to the protocol provided with the kit. The green (FITC) and red (PI) fluorescence intensities of cells subjected to labeling DNA strand breaks with the use of TdT were measured using a FACScan Flow Cytometer (Becton Dickinson Immunocytometry Systems, San Jose, Calif.). The data from 10^4 cells per sample were collected, stored and analyzed using CELL Quest software (Becton Dickinson and Co.).

[9] = test system: Bax and Bcl-2 protein expression; experiment: Western blot of Bax and Bcl-2 in LNCaP; assay type: cell-based, Human; conditions: 8.24 uM and 13.74 uM of oridonin, 48 hours, FIG. 11
Description: To determine the Bcl-2:Bax ratio in oridonin-incubated LNCaP cells, a Western blotting procedure was performed. LNCaP cells were prepared such that one sample contained was incubated in the absence of oridonin, another sample in 8.24 uM of oridonin, and another sample in 13.74 uM of oridonin. The samples were incubated for 48 hours. Equal amounts of protein (10 micrograms) from LNCaP cell lysates were applied to a 10% SDS/PAGE (sodium dodecylsulfate/polyacrylamide gel electrophoresis) gel, and were then transferred to a PVDF membrane. The blots were probed with one of two primary antibodies comprising 1:100 Anti-Bax YTH-2D2 (Lot#3148E0, R&D, MN USA), and 1:100 Bcl-2 Oncoprotein (Clone 124, No. M0887), followed by second antibody exposure of 1:1000 Anti-mouse IgG-HRP (se-2005, Santa Cruz Biotechnology, USA) for 1 hour at […] temp. The immuno-binding signals were detected by the chemiluminescence method (ECL Western blotting system). The experiments were run in triplicates.

[10] = test system: p53; experiment: Flow cytometric measurement of p53 protein in LNCaP; assay type: cell-based, Human; conditions: for increase in p53 concentration: FIG. 12
Description: (§5) To further verify the increase in Bax and the decrease in Bcl-2 proteins, and to determine the p53 protein levels induced by oridonin, flow cytometric measurement was performed to compare the results as obtained by Western blot. Following treatment with 3-9 μM of oridonin for 48 h, the LNCaP cells were trypsinized and washed with PBS. The cells were fixed in 1% formaldehyde in PBS on ice for 10 minutes and then permeabilized with 70% ethanol at −20° C. After fixation, the cells were rinsed with PBS, treated with a blocking solution containing 1% (w/v) bovine serum albumin (BSA) and 0.1% sodium azide in PBS (PBS-BSA) for 2 min at room temperature. The cells were subsequently added to a 100 μl aliquot of BSA/PBS solution containing 1:50 diluted primary antibody for Bcl-2, Bax (stained LNCaP) and p53. The mixtures were incubated at room temperature in the dark for 1 hr. The cells were subsequently washed twice with PBS-BSA buffer. The secondary antibody was added at 1:50 dilution for 30 minutes at room temperature in the dark, then counterstained for DNA by the addition of 1 ml of PI […] solution (final PI concentration 5 μg/ml) containing 100 μg/ml of RNAse A. Cellular fluorescence was measured with the ELITE ESP flow cytometer/cell sorter (Coulter Inc., Miami, Fla.) using the argon ion laser (emission at 488 nm). Fluorescence signals were collected using the standard configuration of the flow cytometer (green fluorescence for antibodies containing Bcl-2, Bax, and p53, and red fluorescence for DNA staining). 10,000 cells were analyzed per sample.

[11] = test system: Bax; experiment: Flow cytometric measurement of Bax protein in LNCaP; assay type: cell-based, Human; conditions: flow cytometry
Description: as §5

[12] = test system: Bcl-2; experiment: Flow cytometric measurement of Bcl-2 protein in LNCaP; assay type: cell-based, Human; conditions: 8.24 uM oridonin, flow cytometry, CTRL 11.3
Description: as §5, with “The cells were subsequently added to a 100 μl aliquot of BSA/PBS solution containing 1:50 diluted primary antibody for Bcl-2, Bax (stained LNCaP) and p53. The mixtures were incubated at room temperature in the dark for 1 hr. The cells were subsequently washed twice with PBS-BSA buffer.” left out

[13] = about 100 ug/ml of lupulone, FIG. 2
[14] = about 5 ug/ml of oridonin, FIG. 1

In the case of CC/C(=C(/CC)c1ccc(O)cc1)c1ccc(O)cc1 [DES, reference compound], the “cell cycle arrest phase” value ([1]; DES) is reported as “G2M phase arrest”, the “times more sensitive in inhibiting LNCaP than in inhibiting DU-145” value [2] is reported as “about 2.5 times” and the “cell cycle arrest phase” value ([3]; DES (30 μM per FIG. 15 legend)) is reported as “G2M phase arrest”.
CC(C)=CCC1=C(O)C(CC=C(C)C)(CC=C(C)C)C(=O)C(C(=O)CC(C)C)=C1O [Lupulone, lupulone] was tested, and the “effect on cell cycle” value ([4]; 60 micromolar (25 microgram/milliliter)) was “G1 phase arrest”, the “effect on cell proliferation” value ([4]; 120 micromolar (50 microgram/milliliter)) was “complete block of cell proliferation” and the “proliferation decreased compared to the control” value [5, 13] was “more than 75%”. The “ED50 values from MTT Assay, LNCaP” value [5] was 36.53 µg/mL (≈ 88.1 µM), the “proliferation decreased compared to the control” value ([6]; about 100 ug/ml of lupulone, FIG. 3) was “more than 85%” and the “ED50 values from MTT Assay, MCF-7” value [6] was 56.62 µg/mL (≈ 137 µM). The “increase of cells arrested in the G2M phase compared to cells not exposed” value ([3]; lupulone (50 μg per FIG. 5 legend)) was “about 100%”, the “proliferation decreased compared to the control” value [7, 13] was “more than 55%” and the “ED50 values from MTT Assay, DU-145” value [7] was 89.7 µg/mL (≈ 216 µM).
oridonin was tested, and the cell apoptosis [8] was “About 6%”, the “ratio of Bax/Bcl-2 by Western blot” value [9] was “increased significantly” and the “cells arrested in the G1 phase” value ([4]; 25 ug/ml) was “about 35%”. The “cells arrested in the G1 phase” value ([4]; 50 ug/ml) was “about 90%”, the “cells arrested in the G1 phase” value ([1]; DU-145 (so in the source), about 8.20 uM-22 uM of oridonin, FIG. 10) was “over 60%” and the “increase in the number of cells arrested in the S phase compared to the control” value ([1]; 1.5 ug/ml of oridonin) was ~16%. The “increase in the number of cells arrested in the S phase compared to the control” value ([1]; 3.0 ug/ml of oridonin) was “about 30%”, the “cells arrested in the G2M phase” value ([1]; FIG. 9d) was “about 37%” and the “cells arrested in the G2M phase” value ([1]; about 8.20 uM-22 uM of oridonin, FIG. 10) was 30-55%. For the same compound, the “cell cycle arrest phase” value ([1]; oridonin) was “G2M arrest”, the “increase in p53 concentration” value ([10]; 8.2 uM of oridonin) was “Approximately 40%” and the “increase in the ratio of p53/Bcl-2” value ([10]; 8.24uM oridonin, flow cytometry) was 100%. The p53/Bcl-2 ([10]; 8.24 uM oridonin, flow cytometry, CTRL 1) was 2.0, the p53 ([10]; 8.24 uM oridonin, flow cytometry, CTRL 8.8) was 12.3 and the “increase in p53 concentration” value ([10]; 13.74 uM of oridonin) was ~100%. For the same compound, the “increase in the ratio of Bax/Bcl-2” value ([11]; 8.24uM of oridonin) was ~75%, the Bax/Bcl-2 ([11]; 8.24 uM oridonin, CTRL 1) was 1.8 and the Bax ([11]; 8.24 uM oridonin, CTRL 11.8) was 14.5. For the same compound, the Bcl-2 [12] was 7.9, the “proliferation reduced over that of the control” value [5, 14] was “about 75%” and the “ED50 values from MTT Assay, LNCaP” value [5] was 2.11 µg/mL. The “ED50 values from MTT Assay, MCF-7” value [6] was 1.71 µg/mL, the “absorbance reading of MTT” value ([6]; under 15 ug/ml of oridonin, FIG. 3) was 0 and the “more cells arrested in the G1 phase compared to cells not exposed” value ([3]; 3 ug/ml of oridonin, FIG. 5) was “over 25%”. For the same compound, the “cell cycle arrest phase” value ([3]; oridonin) was “G1 cell cycle arrest”, the “cells in the G1 phase of the cell cycle” value ([3]; oridonin 3 μg/ml, 24 hr, FIG. 4) was “over 65%” and the “cells arrested in the G1 phase” value ([3]; oridonin, FIG. 9b) was “about 68%”. For the same compound, the “proliferation decreased over that of the control” value [7, 14] was “more than 80%” and the “ED50 values from MTT Assay, DU-145” value [7] was 3.03 µg/mL.
